The source made the active and inactive calls.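 The calls were made as follows: active = parasite count per well reduced by over 3 SD from the mean, with host cell number above 80% of untreated; inactive = the rest.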
Tested on: L. donovani amastigotes in THP-1 macrophages, DAPI imaging, 72 h
Assay: L. donovani intracellular amastigote growth inhibitors, imaging, THP-1 host macrophages, single concentration (AID 977614);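 also: signal is the parasite per host cell ratio from DAPI stained kinetoplasts and nuclei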

Compound	AC50
OC[C@@H]1[C@@H]2c3ccccc3NC[C@@H]2N1Cc1ccccc1Cl	> 10 µM (inactive)
CC(=O)N1[C@H](CN(CC(C)C)C(=O)c2ccccn2)[C@@H](c2ccccc2)[C@@H]1CO	> 10 µM (inactive)
C[C@@H]1CN([C@@H](C)CO)C(=O)CCCn2nncc2CO[C@@H]1CN(C)Cc1ccc2cccnc2c1	> 10 µM (inactive)
CCN(C[C@@H]1[C@H](c2ccccc2)[C@@H](CO)N1CC1CC1)C(=O)c1ccccn1	> 10 µM (inactive)
C[C@H]1CN([C@@H](C)CO)C(=O)CCCn2nncc2CO[C@@H]1CN(C)Cc1ccc(C(=O)Nc2ccccc2N)cc1	> 10 µM (inactive)
COc1ccccc1CN1[C@H](CO)[C@@H]2c3ccccc3N(C(=O)C3CCOCC3)C[C@@H]21	> 10 µM (inactive)
C[C@H](CO)N1C[C@H](C)[C@H](CN(C)Cc2ccc3cccnc3c2)OCc2cnnn2CCCC1=O	> 10 µM (inactive)
COc1ccc(C(=O)N2C[C@H]3[C@@H](c4ccccc42)[C@@H](CO)N3Cc2ccccc2Cl)cc1	> 10 µM (inactive)
C/C=C/c1ccc([C@H]2[C@@H](CNC(C)=O)N(C(=O)Cc3ccncc3)[C@H]2CO)cc1	> 10 µM (inactive)
C[C@@H]1CN([C@H](C)CO)C(=O)CCCn2nncc2CO[C@@H]1CN(C)Cc1cccc2c1OCCCO2	> 10 µM (inactive)
O=C(Cc1cccnc1)N1[C@H](CO)[C@H](c2ccccc2)[C@H]1CNCC1CCC1	> 10 µM (inactive)
C[C@H](CO)N1C[C@H](C)[C@@H](CN(C)C(=O)CCC(F)(F)F)OCc2cnnn2CCCC1=O	> 10 µM (inactive)
CC(=O)N1[C@@H]2CN(S(=O)(=O)c3ccccc3C)c3ccccc3[C@@H]2[C@@H]1CO	> 10 µM (inactive)
O=C(Nc1cccc(Cl)c1)N1C[C@@H]2[C@H](c3ccccc31)[C@H](CO)N2Cc1cccnc1	> 10 µM (inactive)
O=C(CC(F)(F)F)N1C[C@H]2[C@@H](c3ccccc31)[C@@H](CO)N2C(=O)C1CCCCC1	> 10 µM (inactive)
COCC(=O)N1[C@@H]2CNc3ccccc3[C@@H]2[C@@H]1CO	> 10 µM (inactive)
Cc1noc(C)c1S(=O)(=O)N(C)C[C@@H]1OCc2cnnn2CCCC(=O)N([C@@H](C)CO)C[C@H]1C	> 10 µM (inactive)
CN(C[C@H]1[C@H](c2ccccc2)[C@@H](CO)N1CC1CC1)C(=O)c1ccc(F)cc1	> 10 µM (inactive)
CCN(C[C@@H]1N[C@H](CO)[C@H]1c1ccccc1)C(=O)c1ccncc1	> 10 µM (inactive)
CC(=O)N1[C@H](CO)[C@@H](c2ccccc2)[C@H]1CN(C)S(=O)(=O)c1ccccc1	> 10 µM (inactive)
CCCNC(=O)N1C[C@@H]2[C@H](c3ccccc31)[C@H](CO)N2C(=O)Nc1ccccc1F	> 10 µM (inactive)
CCN(C[C@H]1[C@@H](c2ccccc2)[C@@H](CO)N1C(=O)COC)S(C)(=O)=O	> 10 µM (inactive)
COCCNC[C@@H]1[C@H](c2ccccc2)[C@H](CO)N1c1nc(C)c(C)s1	> 10 µM (inactive)
C[C@H](CO)N1C[C@H](C)[C@H](CN(C)C(=O)Nc2ccc3c(c2)OCO3)OCc2cn(nn2)CCCC1=O	> 10 µM (inactive)
C[C@@H]1CN([C@@H](C)CO)C(=O)CCCn2cc(nn2)CO[C@@H]1CN(C)S(=O)(=O)c1ccc(-n2cccn2)cc1	> 10 µM (inactive)
COc1ccc(CN(C)C[C@@H]2OCc3cnnn3CCCC(=O)N([C@@H](C)CO)C[C@H]2C)cc1	> 10 µM (inactive)
O=C(NC[C@H]1[C@H](c2ccccc2)[C@@H](CO)N1Cc1cccnc1)c1ccccn1	> 10 µM (inactive)
C[C@H]1CN([C@@H](C)CO)C(=O)CCCn2cc(nn2)CO[C@H]1CN(C)C(=O)NC1CCCCC1	> 10 µM (inactive)

Compound	AC50
O=C(C1CCCCC1)N1[C@H](CO)[C@H]2c3ccccc3N(S(=O)(=O)c3ccccc3)C[C@H]21	> 10 µM (inactive)
C[C@H]1CN([C@@H](C)CO)C(=O)CCCn2cc(nn2)CO[C@@H]1CN(C)S(=O)(=O)c1cccc(C#N)c1	> 10 µM (inactive)
C[C@H]1CN([C@@H](C)CO)C(=O)CCCn2cc(nn2)CO[C@H]1CN(C)Cc1ccccc1	> 10 µM (inactive)
C[C@H]1CN([C@@H](C)CO)C(=O)CCCn2nncc2CO[C@H]1CN(C)C(=O)CCC(F)(F)F	> 10 µM (inactive)
C[C@@H]1CN([C@H](C)CO)C(=O)CCCn2cc(nn2)CO[C@@H]1CN(C)Cc1ccccc1	> 10 µM (inactive)
O=C(Cc1ccccn1)N1[C@H](CO)[C@@H]2c3ccccc3NC[C@@H]21	> 10 µM (inactive)
O=C(NC[C@H]1N[C@H](CO)[C@H]1c1ccccc1)c1ccccc1F	> 10 µM (inactive)
C[C@@H]1CN([C@@H](C)CO)C(=O)CCCn2nncc2CO[C@H]1CN(C)Cc1ccc2c(c1)OCCN2C	> 10 µM (inactive)
C[C@H]1CN([C@@H](C)CO)C(=O)CCCn2nncc2CO[C@H]1CN(C)CC1CCCCC1	> 10 µM (inactive)
Cc1noc(C)c1S(=O)(=O)N(C)C[C@@H]1OCc2cn(nn2)CCCC(=O)N([C@@H](C)CO)C[C@H]1C	> 10 µM (inactive)
CCN(C[C@@H]1[C@@H](c2ccccc2)[C@@H](CO)N1CC1CC1)C(=O)c1ccccn1	> 10 µM (inactive)
C[C@@H]1CN([C@H](C)CO)C(=O)CCCn2nncc2CO[C@H]1CN(C)S(=O)(=O)c1ccc2c(c1)OCCCO2	> 10 µM (inactive)
OC[C@H]1[C@H]2c3ccccc3NC[C@H]2N1CC1CCOCC1	> 10 µM (inactive)
CC(=O)N1[C@H](CO)[C@@H](c2ccc(C3=CCCCC3)cc2)[C@@H]1CNC(=O)CN(C)C	> 10 µM (inactive)
CCCNC(=O)N(Cc1cccnc1)C[C@H]1N[C@H](CO)[C@@H]1c1ccccc1	> 10 µM (inactive)
O=C(c1ccccn1)N1C[C@H]2[C@@H](c3ccccc31)[C@H](CO)N2C(=O)Nc1ccccc1Cl	> 10 µM (inactive)
CCC(=O)N1[C@H](CN(CC)C(=O)c2cccc(F)c2)[C@@H](c2ccccc2)[C@@H]1CO	> 10 µM (inactive)
C[C@@H]1CN([C@@H](C)CO)C(=O)CCCn2nncc2CO[C@H]1CN(C)C(=O)Nc1ccccc1C(F)(F)F	> 10 µM (inactive)
CCCC(=O)N1C[C@H]2[C@@H](c3ccccc31)[C@@H](CO)N2C(=O)Nc1ccc(F)cc1	> 10 µM (inactive)
COc1ccccc1NC(=O)N1C[C@H]2[C@@H](c3ccccc31)[C@@H](CO)N2Cc1ccc2c(c1)OCO2	> 10 µM (inactive)
OC[C@@H]1[C@H]2c3ccccc3NC[C@H]2N1Cc1ccccc1Cl	> 10 µM (inactive)
O=C(NC[C@H]1N[C@H](CO)[C@@H]1c1ccc(-c2ccccc2)cc1)c1cccc(F)c1	> 10 µM (inactive)
CC(=O)N1[C@H](CO)[C@H](c2ccccc2)[C@H]1CN(C(=O)c1ccccc1F)C(C)C	> 10 µM (inactive)
C/C=C/c1ccc([C@H]2[C@@H](CO)N(S(C)(=O)=O)[C@@H]2CN(C(C)=O)C(C)C)cc1	> 10 µM (inactive)
CCN(C[C@H]1N[C@H](CO)[C@@H]1c1ccccc1)C(=O)c1ccncc1	> 10 µM (inactive)
O=C(NC[C@H]1N[C@H](CO)[C@H]1c1ccc(-c2ccccc2F)cc1)c1ccccn1	> 10 µM (inactive)
C[C@H](CO)N1C[C@H](C)[C@H](CN(C)C(=O)Nc2ccnc(N3CCOCC3)c2)OCc2cnnn2CCCC1=O	> 10 µM (inactive)
